Assay results as given in US7605265B2, “Heterodimers and methods of using them” (priority 2007, dated 2009).

Assays:
[1] = target: T1, butyrylcholinesterase (BChE) (Rattus norvegicus, UniProt Q9JKC1); assay: biochemical
T1 construct: from tissue; host or cells: rat serum

transient focal ischemia = assay: MCAO (middle carotid artery occlusion model), transient focal ischemia; type: in vivo, mice; conditions: for infarct area (in words): FIG. 5g; for infarct volume (in words): FIG. 5h; for neurological deficits (in words): administration 6 hours after ischemia
Description: The MCAO (middle carotid artery occlusion model) was performed to investigate the protective effects of compounds A, B and C on the brain when the brain was exposed to transient focal ischemia (lack of oxygen), emulating brain conditions during a stroke. […] The ability of the novel compounds to protect against the appearance of these neurological deficits was examined using a four-point scale neurological scoring system (Mann Whitney U test). For each of the following observable signs, the distribution of test subjects was noted (with and without treatment with the invention after ischemia): (0) no observable neurological deficits (normal); (1) failure to extend the left forepaw fully (mild); (2) circling to the contralateral side (moderate); and (3) loss of walking and righting reflex (severe). • (ii) The brains of the test subjects slices were sectioned into five pieces and the infarct area and volume of each slice was measured. The % of infarct area in test subjects treated with the invention after ischemia was compared to that of the control group for each brain slice. • (iii) Hemispheric brain swelling and infarct volume (the area of dead tissue caused by inadequate blood supply) was measured for test subjects treated with the invention after ischemia, and compared to that of the control group.
The compounds were administered 5 minutes after ischemia, 5 minutes after reperfusion, or 6 hours after ischemia. FIGS. 5a to 5f show results for the heterodimers compound B, C or A respectively, when administered 5 minutes after ischemia or reperfusion. FIGS. 5g and 5h show the results when the novel heterodimers were administered 6 hours after ischemia.
Compound B was administered at 5 minutes after ischemia. Distribution of neurological scores based on a four-point scale neurological scoring system (Mann Whitney U test): (0) no observable neurological deficits (normal); (1) failure to extend the left forepaw fully (mild); (2) circling to the contralateral side (moderate); and (3) loss of walking and righting reflex (severe).
The brain was sectioned into five pieces, each 2-mm thick. The infarct area of each posterior surface was analyzed by an image analysis program. The percentage of infarct area and volume were calculated and presented as the percentage of the infarct area of the contralateral hemisphere to eliminate the contribution of edema to the ischemic lesion.
The infarct area of each posterior surface was analyzed by an image analysis program. Hemispheric brain swelling was calculated as follows (ipsilateral volume−contralateral volume)/contralateral volume×100%.

[2] = 0.005 μg/kg, 6 hours after ischemia
[3] = 0.05 μg/kg, 5 minutes after ischemia
[4] = 0.05 μg/kg, 6 hours after ischemia
[5] = 0.5 μg/kg, 5 minutes after ischemia
[6] = 0.005 μg/kg, 5 minutes after reperfusion
[7] = 0.05 μg/kg, 5 minutes after reperfusion

T1 sequence (Q9JKC1 24-597): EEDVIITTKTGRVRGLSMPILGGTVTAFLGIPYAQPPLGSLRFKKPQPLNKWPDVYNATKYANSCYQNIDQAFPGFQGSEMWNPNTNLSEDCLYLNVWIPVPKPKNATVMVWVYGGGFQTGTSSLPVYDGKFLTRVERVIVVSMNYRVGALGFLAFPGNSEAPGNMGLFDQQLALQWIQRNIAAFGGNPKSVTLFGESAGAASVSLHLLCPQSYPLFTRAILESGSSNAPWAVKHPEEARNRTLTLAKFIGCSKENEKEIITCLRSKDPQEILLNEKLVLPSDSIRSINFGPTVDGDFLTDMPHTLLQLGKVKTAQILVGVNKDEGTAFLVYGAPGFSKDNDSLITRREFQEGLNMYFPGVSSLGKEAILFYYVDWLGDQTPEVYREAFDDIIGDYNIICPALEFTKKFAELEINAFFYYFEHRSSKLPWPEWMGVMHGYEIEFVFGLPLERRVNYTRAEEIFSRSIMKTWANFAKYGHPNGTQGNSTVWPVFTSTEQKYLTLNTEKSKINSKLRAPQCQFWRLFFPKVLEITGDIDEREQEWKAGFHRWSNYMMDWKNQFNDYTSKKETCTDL

Q: Which IC50 [1] does the source give for `O=c1ccc2c([nH]1)CCCC2NCCCCCCCNc1c2c(nc3cc(Cl)ccc13)CCCC2` (stereo not drawn) [Compound B] here?
A: 0.0311 ± 0.00196 µM

Q: What about the “% Infarct area in brain slice # 1” value (transient focal ischemia; [2]) of the same compound?
A: 11.9 ± 4.3%

Q: What about the “% Infarct area in brain slice # 2” value (transient focal ischemia; [2]) of the same compound?
A: 43.4 ± 6.5%

Q: What about the “% Infarct area in brain slice # 3” value (transient focal ischemia; [2]) of the same compound?
A: 40.1 ± 4.7 %

Q: And the “% Infarct area in brain slice # 4” value (transient focal ischemia; [2])?
A: 24.3 ± 7.5%

Q: And the “% Infarct area in brain slice # 5” value (transient focal ischemia; [2])?
A: −1.4 ± 1.0%

Q: What about the “Hemispheric swelling (%)” value (transient focal ischemia; [2]) of the same compound?
A: 7.3 ± 1.2%

Q: And the “Infarct volume (%)” value (transient focal ischemia; [2])?
A: 28.5 ± 3.4%

Q: And the “Observed Neurological Deficits Mean ± SEM” value (transient focal ischemia; [2])?
A: 1.2 ± 0.2

Q: What about the “Observed Neurological Deficits, score 0 (number of animals)” value (transient focal ischemia; [2]) of the same compound?
A: 0

Q: What about the “Observed Neurological Deficits, score 1 (number of animals)” value (transient focal ischemia; [2]) of the same compound?
A: 7

Q: What about the “Observed Neurological Deficits, score 2 (number of animals)” value (transient focal ischemia; [2]) of the same compound?
A: 2

Q: What about the “Observed Neurological Deficits, score 3 (number of animals)” value (transient focal ischemia; [2]) of the same compound?
A: 0

Q: What about the “n (dead/total): dead/total” value (transient focal ischemia; [2]) of the same compound?
A: 9 (0/9)

Q: And the “% Infarct area in brain slice # 1” value (transient focal ischemia; [3])?
A: 11.5%

Q: What about the “% Infarct area in brain slice # 2” value (transient focal ischemia; [3]) of the same compound?
A: 42.6 ± 4.8 %

Q: And the “% Infarct area in brain slice # 3” value (transient focal ischemia; [3])?
A: 40.0 ± 6.6 %

Q: And the “% Infarct area in brain slice # 4” value (transient focal ischemia; [3])?
A: 34.0%

Q: And the “% Infarct area in brain slice # 5” value (transient focal ischemia; [3])?
A: 0.1%

Q: And the “Hemispheric swelling (%)” value (transient focal ischemia; [3])?
A: 6.5 ± 1.5%

Q: What about the “Infarct volume (%)” value (transient focal ischemia; [3]) of the same compound?
A: 31.2 ± 4.6 %

Q: What about the “Observed Neurological Deficits Mean ± SEM” value (transient focal ischemia; [3]) of the same compound?
A: 1.1 ± 0.1

Q: And the “Observed Neurological Deficits, score 0 (number of animals)” value (transient focal ischemia; [3])?
A: 0

Q: And the “Observed Neurological Deficits, score 1 (number of animals)” value (transient focal ischemia; [3])?
A: 8

Q: And the “Observed Neurological Deficits, score 2 (number of animals)” value (transient focal ischemia; [3])?
A: 1

Q: And the “Observed Neurological Deficits, score 3 (number of animals)” value (transient focal ischemia; [3])?
A: 0

Q: And the “n (dead/total): dead/total” value (transient focal ischemia; [3])?
A: 9 (2/11)

Q: What about the “infarct area in brain slices (in words)” value (transient focal ischemia; 0.05 μg/kg, 5 minutes after ischemia, FIG. 5a) of the same compound?
A: reduced the infarct area in brain slices #2 and #3

Q: What about the “% Infarct area in brain slice # 1” value (transient focal ischemia; [4]) of the same compound?
A: 15.7 ± 2.9%

Q: And the “% Infarct area in brain slice # 2” value (transient focal ischemia; [4])?
A: 50.5 ± 7.2%

Q: What about the “% Infarct area in brain slice # 3” value (transient focal ischemia; [4]) of the same compound?
A: 41.7 ± 6.0%

Q: And the “% Infarct area in brain slice # 4” value (transient focal ischemia; [4])?
A: 25.2 ± 8.2%

Q: And the “% Infarct area in brain slice # 5” value (transient focal ischemia; [4])?
A: −1.3 ± 1.7%

Q: And the “Hemispheric swelling (%)” value (transient focal ischemia; [4])?
A: 7.0 ± 1.5%

Q: What about the “Infarct volume (%)” value (transient focal ischemia; [4]) of the same compound?
A: 31.1 ± 4.8%

Q: And the “Observed Neurological Deficits Mean ± SEM” value (transient focal ischemia; [4])?
A: 1.4 ± 0.2

Q: And the “Observed Neurological Deficits, score 0 (number of animals)” value (transient focal ischemia; [4])?
A: 0

Q: What about the “Observed Neurological Deficits, score 1 (number of animals)” value (transient focal ischemia; [4]) of the same compound?
A: 5

Q: What about the “Observed Neurological Deficits, score 2 (number of animals)” value (transient focal ischemia; [4]) of the same compound?
A: 3

Q: And the “Observed Neurological Deficits, score 3 (number of animals)” value (transient focal ischemia; [4])?
A: 0

Q: What about the “n (dead/total): dead/total” value (transient focal ischemia; [4]) of the same compound?
A: 8 (3/12)

Q: What about the “Observed Neurological Deficits Mean ± SEM” value (transient focal ischemia; [5]) of the same compound?
A: 1.5 ± 0.3

Q: And the “Observed Neurological Deficits, score 0 (number of animals)” value (transient focal ischemia; [5])?
A: 0

Q: What about the “Observed Neurological Deficits, score 1 (number of animals)” value (transient focal ischemia; [5]) of the same compound?
A: 2

Q: What about the “Observed Neurological Deficits, score 2 (number of animals)” value (transient focal ischemia; [5]) of the same compound?
A: 2

Q: What about the “Observed Neurological Deficits, score 3 (number of animals)” value (transient focal ischemia; [5]) of the same compound?
A: 0

Q: And the “n (dead/total): dead/total” value (transient focal ischemia; [5])?
A: 4 (4/8)

Q: What about the “infarct volume and hemispheric swelling (in words)” value (transient focal ischemia; 5 minutes after ischemia (compound A: 0.05 and 0.1 mg/kg), FIG. 5b, 5f) of the same compound?
A: reduces infarct volume but not hemispheric swelling

Q: And the “infarct area (in words)” value (transient focal ischemia; 6 hours after ischemia)?
A: improvement in the infarct area

Q: What about the “infarct volume (in words)” value (transient focal ischemia; 6 hours after ischemia) of the same compound?
A: decreases infarct volume

Q: What about the “neurological deficits induced by ischemia (in words)” value (transient focal ischemia; administered 5 minutes after ischemia) of the same compound?
A: reduced neurological deficits induced by ischemia

Q: What about the “neurological deficits (in words)” value (transient focal ischemia) of the same compound?
A: reduced neurological deficits

Q: What does the source list for `O=c1ccc2c([nH]1)CCCC2NCCCCCCCCNc1c2c(nc3cc(Cl)ccc13)CCCC2` (stereo not drawn) [Compound C]?
A: IC50 [1]: 0.638 ± 0.122 µM; % Infarct area in brain slice # 1 (transient focal ischemia; [6]): 18.8 ± 3.3%; % Infarct area in brain slice # 2 (transient focal ischemia; [6]): 47.8 ± 3.0%; % Infarct area in brain slice # 3 (transient focal ischemia; [6]): 45.4 ± 1.8%; % Infarct area in brain slice # 4 (transient focal ischemia; [6]): 18.5 ± 3.8 %; % Infarct area in brain slice # 5 (transient focal ischemia; [6]): 0.6 ± 0.5%; Hemispheric swelling (%) (transient focal ischemia; [6]): 7.1 ± 1.0 %; Infarct volume (%) (transient focal ischemia; [6]): 30.1 ± 1.5 %; Observed Neurological Deficits Mean ± SEM (transient focal ischemia; [6]): 1.0 ± 0.0; Observed Neurological Deficits, score 0 (number of animals) (transient focal ischemia; [6]): 0; Observed Neurological Deficits, score 1 (number of animals) (transient focal ischemia; [6]): 9; Observed Neurological Deficits, score 2 (number of animals) (transient focal ischemia; [6]): 0; Observed Neurological Deficits, score 3 (number of animals) (transient focal ischemia; [6]): 0; n (dead/total): dead/total (transient focal ischemia; [6]): 9 (1/10); % Infarct area in brain slice # 1 (transient focal ischemia; [2]): 15.9 ± 4.0%; % Infarct area in brain slice # 2 (transient focal ischemia; [2]): 40.2 ± 7.9%; % Infarct area in brain slice # 3 (transient focal ischemia; [2]): 35.5 ± 5.3 %; % Infarct area in brain slice # 4 (transient focal ischemia; [2]): 12.5 ± 4.9 %; % Infarct area in brain slice # 5 (transient focal ischemia; [2]): −0.8 ± 0.8%; Hemispheric swelling (%) (transient focal ischemia; [2]): 6.2 ± 1.2%; Infarct volume (%) (transient focal ischemia; [2]): 23.9 ± 4.3 %; Observed Neurological Deficits Mean ± SEM (transient focal ischemia; [2]): 1.3 ± 0.2; Observed Neurological Deficits, score 0 (number of animals) (transient focal ischemia; [2]): 0; Observed Neurological Deficits, score 1 (number of animals) (transient focal ischemia; [2]): 6; Observed Neurological Deficits, score 2 (number of animals) (transient focal ischemia; [2]): 2; Observed Neurological Deficits, score 3 (number of animals) (transient focal ischemia; [2]): 0; n (dead/total): dead/total (transient focal ischemia; [2]): 8 (1/9); % Infarct area in brain slice # 1 (transient focal ischemia; [7]): 12.8 ± 3.3%; % Infarct area in brain slice # 2 (transient focal ischemia; [7]): 54.0 ± 4.1%; % Infarct area in brain slice # 3 (transient focal ischemia; [7]): 51.4 ± 3.1%; % Infarct area in brain slice # 4 (transient focal ischemia; [7]): 26.2 ± 6.7%; % Infarct area in brain slice # 5 (transient focal ischemia; [7]): −1.0 ± 0.8%; Hemispheric swelling (%) (transient focal ischemia; [7]): 7.4 ± 1.0 %; Infarct volume (%) (transient focal ischemia; [7]): 34.5 ± 3.7%; Observed Neurological Deficits Mean ± SEM (transient focal ischemia; [7]): 1.3 ± 0.2; Observed Neurological Deficits, score 0 (number of animals) (transient focal ischemia; [7]): 0; Observed Neurological Deficits, score 1 (number of animals) (transient focal ischemia; [7]): 4; Observed Neurological Deficits, score 2 (number of animals) (transient focal ischemia; [7]): 2; Observed Neurological Deficits, score 3 (number of animals) (transient focal ischemia; [7]): 0; n (dead/total): dead/total (transient focal ischemia; [7]): 6 (1/7); % Infarct area in brain slice # 1 (transient focal ischemia; [4]): 11.7 ± 3.3%; % Infarct area in brain slice # 2 (transient focal ischemia; [4]): 38.0 ± 6.8 %; % Infarct area in brain slice # 3 (transient focal ischemia; [4]): 32.5 ± 6.6 %; % Infarct area in brain slice # 4 (transient focal ischemia; [4]): 16.8 ± 6.0%; % Infarct area in brain slice # 5 (transient focal ischemia; [4]): 0.5 ± 0.4%; Hemispheric swelling (%) (transient focal ischemia; [4]): 5.0 ± 1.2%; Infarct volume (%) (transient focal ischemia; [4]): 23.5 ± 4.4 %; Observed Neurological Deficits Mean ± SEM (transient focal ischemia; [4]): 1.3 ± 0.2; Observed Neurological Deficits, score 0 (number of animals) (transient focal ischemia; [4]): 0; Observed Neurological Deficits, score 1 (number of animals) (transient focal ischemia; [4]): 6; Observed Neurological Deficits, score 2 (number of animals) (transient focal ischemia; [4]): 2; Observed Neurological Deficits, score 3 (number of animals) (transient focal ischemia; [4]): 0; n (dead/total): dead/total (transient focal ischemia; [4]): 8 (1/9); infarct area in brain slices (in words) (transient focal ischemia; 5 minutes after reperfusion, FIG. 5c): reduction in infarct area of brain slices #4; infarct size and hemispheric swelling (in words) (transient focal ischemia; 5 minutes after reperfusion, FIG. 5d): reduced infarct size and hemispheric swelling; infarct area (in words) (transient focal ischemia; 6 hours after ischemia): improvement in the infarct area; infarct volume (in words) (transient focal ischemia; 6 hours after ischemia): decreases infarct volume; neurological deficits induced by ischemia (in words) (transient focal ischemia; administered 5 minutes after reperfusion): reduced neurological deficits induced by ischemia; neurological deficits (in words) (transient focal ischemia): reduced neurological deficits
